Values of other authors as cited in patent publication US20030044472A1, “METHOD AND SYNERGISTIC COMPOSITION FOR TREATING ATTENTION DEFICIT/HYPERACTIVITY DISORDER” (DexGen-Intellectual Property, Homocysteine, Inc., priority 2001, published 2003).
Structures can show the parent of a compound that is named as a salt.

Legend:
ADHD children [1] = conditions: supplements at 6 mg/lb. of the child
ADHD children [2] = conditions: double blind clinical study

Structure (SMILES)	hyperactivity (ADHD children [1])	test score improvements vs. placebo (ADHD children [2])
[Mg+2] [magnesium]	a decrease in hyperactivity	
COC(=O)C(c1ccccc1)C1CCCCN1 (centres unmarked) [Ritalin, methylphenidate hydrochloride]		significant test score improvements
